Experimental data taken from ChEMBL document CHEMBL6114969, “Ultra-short lipopeptides containing d-amino acid exhibiting excellent stability and antibacterial activity against gram-positive bacteria” (Eur J Med Chem, 2025).
Converted amounts (≈) assume the structure as drawn. The source made the active and inactive calls. No cut-off for these calls is given here.

Legend:
Staphylococcus aureus [1] = experiment: Antibacterial activity against methicillin-resistant Staphylococcus aureus ATCC 33591 incubated for 18 to 24 hrs in presence of 2 mg/ml of pepsin by broth microdilution method; type: functional; settings: time 18-24 hrs
Staphylococcus aureus [2] = experiment: Antibacterial activity against methicillin-resistant Staphylococcus aureus ATCC 33591 assessed as fold change in MIC incubated for 18 to 24 hrs in presence of NaCl by broth microdilution method; type: functional; settings: time 18-24 hrs
Staphylococcus aureus [3] = experiment: Synergistic bactericidal activity against persistent methicillin-resistant Staphylococcus aureus ATCC 33591 incubated for 18 to 24 hrs in presence of polymyxin B by time-kill assay; type: functional, organism-based; settings: time 18-24 hrs
Staphylococcus aureus [4] = experiment: Inhibition of imipenem-induced drug resistance in methicillin-resistant Staphylococcus aureus ATCC 33591 at sub-MIC measured upto 15 passages; type: functional, organism-based
Staphylococcus aureus [5] = experiment: Induction of drug resistance in Staphylococcus aureus ATCC 25923 at sub-MIC measured after 15 passages; type: functional, organism-based
Staphylococcus aureus [6] = experiment: Antibacterial activity against drug-resistant Staphylococcus aureus ATCC 25923 incubated for 18 to 24 hrs; type: functional; settings: time 18-24 hrs
Staphylococcus aureus [7] = experiment: Antibacterial activity against polymyxin B-resistant Staphylococcus aureus ATCC 25923 incubated for 18 to 24 hrs; type: functional; settings: time 18-24 hrs
Staphylococcus aureus [8] = experiment: Antibacterial activity against gentamicin-resistant Staphylococcus aureus ATCC 25923 incubated for 18 to 24 hrs; type: functional; settings: time 18-24 hrs
Staphylococcus aureus [9] = experiment: Antibacterial activity against polymyxin B-resistant methicillin-resistant Staphylococcus aureus ATCC 33591 incubated for 18 to 24 hrs; type: functional; settings: time 18-24 hrs
Staphylococcus aureus [10] = experiment: Synergistic antibacterial activity against methicillin-resistant Staphylococcus aureus ATCC 33591 assessed as fractional inhibitory concentration index upto 2 times MIC incubated for 18 to 24 hrs in presence of ciprofloxacin by checkerboard assay; type: functional; settings: time 18-24 hrs
Staphylococcus aureus [11] = experiment: Synergistic antibacterial activity against methicillin-resistant Staphylococcus aureus ATCC 33591 assessed as fractional inhibitory concentration index upto 2 times MIC incubated for 18 to 24 hrs in presence of polymyxin B by checkerboard assay; type: functional; settings: time 18-24 hrs
Staphylococcus aureus [12] = experiment: Additive bactericidal activity against methicillin-resistant Staphylococcus aureus ATCC 33591 incubated for 18 to 24 hrs in presence of ciprofloxacin by time-kill assay; type: functional, organism-based; settings: time 18-24 hrs
Staphylococcus aureus [13] = experiment: Induction of morphological changes in methicillin-resistant Staphylococcus aureus ATCC 33591 assessed as bacterial membrane folds at 2 times MIC incubated for 2 hrs by SEM analysis; type: functional, organism-based
Staphylococcus aureus [14] = experiment: Induction of cell membrane damage in methicillin-resistant Staphylococcus aureus ATCC 33591 assessed as nucleic acid leakage at 2 to 8 times MIC measured upto 360 mins by absorbance based assay; type: functional, organism-based
Staphylococcus aureus [15] = experiment: Induction of cell membrane damage in methicillin-resistant Staphylococcus aureus ATCC 33591 assessed as protein leakage at 2 to 8 times MIC measured upto 360 mins by absorbance based assay; type: functional, organism-based
Staphylococcus aureus [16] = experiment: Induction of ROS production in methicillin-resistant Staphylococcus aureus ATCC 33591 at 4 times MIC measured upto 360 mins in presence of NAC by DCFH-DA dye based analysis; type: functional, organism-based
[17] = Toxicity in Balb/c mouse assessed as survival rate at 80 mg/kg, ip measured after 7 days; type: organism-based; settings: in vivo, time 7 day
[18] = Toxicity in Balb/c mouse assessed as change in heart co-efficient at 20 to 80 mg/kg, ip measured after 7 days; type: organism-based; settings: in vivo, 168 h, dose 20-80 mg/kg, time 7 day
[19] = Toxicity in Balb/c mouse assessed as change in kidney co-efficient at 20 to 80 mg/kg, ip measured after 7 days; type: organism-based; settings: in vivo, 168 h, dose 20-80 mg/kg, time 7 day
[20] = Toxicity in Balb/c mouse assessed as spleen atrophy at 80 mg/kg, ip measured after 7 days; type: organism-based; settings: in vivo, 168 h, time 7 day
[21] = Toxicity in Balb/c mouse assessed as cell swelling in kidney at 80 mg/kg, ip measured after 7 days by H and E staining based analysis; type: organism-based; settings: in vivo, 168 h, time 7 day
[22] = Toxicity in Balb/c mouse assessed as inflammatory cell infiltration in liver at 80 mg/kg, ip measured after 7 days by H and E staining based analysis; type: organism-based; settings: in vivo, 168 h, time 7 day
Staphylococcus aureus [23] = experiment: Antibacterial activity against methicillin-resistant Staphylococcus aureus ATCC 33591 infected in Balb/c mouse model of acute systemic infection assessed as reduction in bacterial count in kidney at 10 mg/kg, ip measured after 5 days; type: functional, organism-based; settings: time 5.0 day
Staphylococcus aureus [24] = experiment: Antibacterial activity against methicillin-resistant Staphylococcus aureus ATCC 33591 infected in Balb/c mouse model of acute systemic infection assessed as reduction in hypoplasia of white pulp in spleen at 10 mg/kg, ip measured after 5 days by H and E staining based analysis; type: functional, organism-based; settings: time 5.0 day
Staphylococcus aureus [25] = experiment: (§1) Antibacterial activity against methicillin-resistant Staphylococcus aureus ATCC 33591 infected in Balb/c mouse model of acute systemic infection assessed as reduction in inflammatory cell infiltration in kidney at 10 mg/kg, ip measured after 5 days by H and E staining based analysis; type: functional, organism-based; settings: time 5.0 day
Staphylococcus aureus [26] = experiment: Antibacterial activity against methicillin-resistant Staphylococcus aureus ATCC 33591 infected in Balb/c mouse model of acute systemic infection assessed as reduction in bleeding in kidney at 10 mg/kg, ip measured after 5 days by H and E staining based analysis; type: functional, organism-based; settings: time 5.0 day
Staphylococcus aureus [27] = experiment: Antibacterial activity against methicillin-resistant Staphylococcus aureus ATCC 33591 infected in Balb/c mouse model of acute systemic infection assessed as reduction in tubule contraction in kidney at 10 mg/kg, ip measured after 5 days by H and E staining based analysis; type: functional, organism-based; settings: time 5.0 day
Mus musculus = experiment: In vivo inhibition of inflammation in Balb/c mouse model of acute systemic infection infected with methicillin-resistant Staphylococcus aureus ATCC 33591 assessed as reduction in IL-1beta activity at 10 mg/kg, ip measured after 5 days; type: functional, organism-based; settings: time 5.0 day
Staphylococcus aureus [28] = experiment: as §1, with “pneumonia” for “acute systemic”, “lung” for “kidney”, “ip administered thrice at 4, 8 and 12 hrs post-infection” for “ip”, “24 hrs post-infection” for “5 days”; type: functional, organism-based; settings: time 20.0 hrs
Staphylococcus aureus [29] = experiment: (§2) Antibacterial activity against methicillin-resistant Staphylococcus aureus ATCC 33591 infected in Balb/c mouse model of pneumonia infection assessed as reduction in alveolar contraction in lung at 10 mg/kg, ip administered thrice at 4, 8 and 12 hrs post-infection measured after 24 hrs post-infection by H and E staining based analysis; type: functional, organism-based
Staphylococcus aureus [30] = experiment: as §2, with “hrs post-infection in presence of polymyxin B by H” for “hrs post-infection by H”; type: functional, organism-based; settings: time 20.0 hrs
Staphylococcus aureus [31] = experiment: as §1, with “of skin wound” for “of acute systemic”, “in skin” for “in kidney”, “ip administered thrice at 1, 24 and 48 hrs post-infection” for “ip”, “after 14” for “after 5”; type: functional, organism-based; settings: time 14.0 day
Staphylococcus aureus [32] = experiment: (§3) Antibacterial activity against methicillin-resistant Staphylococcus aureus ATCC 33591 infected in Balb/c mouse model of skin wound infection assessed as reduction in inflammatory cell infiltration in skin at 10 mg/kg, ip administered thrice at 1, 24 and 48 hrs post-infection measured after 14 days in presence of polymyxin B by H and E staining based analysis; type: functional, organism-based; settings: time 14.0 day
Staphylococcus aureus [33] = experiment: as §3, with “IL-1beta activity” for “inflammatory cell infiltration”, “days” for “days in presence of polymyxin B”, “IHC” for “H and E staining based”; type: functional, organism-based; settings: time 14.0 day
Staphylococcus aureus [34] = experiment: Antibacterial activity against methicillin-resistant Staphylococcus aureus ATCC 33591 infected in Balb/c mouse model of skin wound infection assessed as reduction in keratosis in wound surface at 10 mg/kg, ip administered thrice at 1, 24 and 48 hrs post-infection measured after 14 days by IHC analysis; type: functional, organism-based; settings: time 14.0 day

CCCCCCCCCCCC(=O)N[C@H](CCCNC(=N)N)C(=O)N[C@H](CCCNC(=N)N)C(=O)N[C@H](Cc1c[nH]c2ccccc12)C(=O)O
MIC (Staphylococcus aureus [1]): 8 µM | fold change (FC) (Staphylococcus aureus [2]): <3 | Activity (Staphylococcus aureus [3]): Dose-dependent-effect | inhibition (Staphylococcus aureus [4]): Active | Activity (Staphylococcus aureus [5]): inactive | MIC (Staphylococcus aureus [6]): 8 µM (≈ 5.59 µg/mL) | MIC (Staphylococcus aureus [7]): 4 µM (≈ 2.8 µg/mL) | MIC (Staphylococcus aureus [8]): 8 µM (≈ 5.59 µg/mL) | MIC (Staphylococcus aureus [9]): 16 µM (≈ 11.2 µg/mL) | fractional inhibitory concentration index (FICI) (Staphylococcus aureus [10]): 0.75 | fractional inhibitory concentration index (FICI) (Staphylococcus aureus [11]): 0.125 | Activity (Staphylococcus aureus [12]): Active | Activity (Staphylococcus aureus [13]): Active | Activity (Staphylococcus aureus [14]): Active | Activity (Staphylococcus aureus [15]): Active | Activity (Staphylococcus aureus [16]): inactive | survival at 168 h [17]: 75% | Activity [18]: Non-toxic | Activity [19]: Toxic | Activity [20]: Toxic | Activity [21]: Toxic | Activity [22]: Toxic | Activity (Staphylococcus aureus [23]): Active | Activity (Staphylococcus aureus [24]): Active | Activity (Staphylococcus aureus [25]): Active | Activity (Staphylococcus aureus [26]): Active | Activity (Staphylococcus aureus [27]): Active | inhibition (Mus musculus): Active | Activity (Staphylococcus aureus [28]): Active | Activity (Staphylococcus aureus [29]): Active | Activity (Staphylococcus aureus [30]): Not active; Compound Exerted Slightly More Severe Than Compound Treatment Alone | Activity (Staphylococcus aureus [31]): Active | Activity (Staphylococcus aureus [32]): Active | Activity (Staphylococcus aureus [33]): Active | Activity (Staphylococcus aureus [34]): Active
